# Experimental data from ChEMBL document CHEMBL1158596, “Synthetic studies on selective adenosine A2A receptor antagonists. Part II: synthesis and structure-activity relationships of novel benzofuran derivatives” (Bioorg Med Chem Lett, 2010).
# What was measured:
# [1] = molecular target: Adenosine receptor A2a (Homo sapiens) (UniProt P29274); assay: Displacement of [3H]CGS21680 from human adenosine A2A receptor at 0.01 umol/L by scintillation counting
# [2] = molecular target: Adenosine receptor A2a (Homo sapiens) (UniProt P29274); assay: Displacement of [3H]CGS21680 from human adenosine A2A receptor at 0.1 umol/L by scintillation counting
# [3] = Intrinsic clearance in human liver microsome; type: ADME; settings: liver microsomes
# Mus musculus = assay: Antiparkinsonian effect in mouse assessed as inhibition of CGS-21680-induced catalepsy at 10 mg/kg, po; type: functional; settings: for inhibition in vivo at 10 mg/kg: Mus musculus
# [4] = Solubility n JP2 fluid; type: physicochemical
# [5] = Intrinsic clearance in marmoset liver microsome […]; type: ADME, Callithrix jacchus; settings: liver microsomes
# [6] = molecular target: T1, Adenosine receptor A1 (Homo sapiens) (UniProt P30542); assay: Antagonist activity at human adenosine A1 receptor at 1 umol/L; type: functional
# T1 sequence (whole entry): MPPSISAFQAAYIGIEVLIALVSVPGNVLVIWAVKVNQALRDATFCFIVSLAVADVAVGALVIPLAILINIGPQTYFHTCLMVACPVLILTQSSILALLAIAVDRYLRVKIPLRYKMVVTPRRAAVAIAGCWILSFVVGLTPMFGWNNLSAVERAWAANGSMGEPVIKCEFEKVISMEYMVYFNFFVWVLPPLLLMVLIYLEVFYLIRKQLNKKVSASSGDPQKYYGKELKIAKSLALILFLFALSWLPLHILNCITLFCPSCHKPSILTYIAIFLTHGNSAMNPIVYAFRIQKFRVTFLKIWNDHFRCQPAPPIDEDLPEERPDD
# [7] = molecular target: T2, Adenosine receptor A2b (Homo sapiens) (UniProt P29275); assay: Antagonist activity at human adenosine A2B receptor at 1 umol/L; type: functional
# T2 sequence (whole entry): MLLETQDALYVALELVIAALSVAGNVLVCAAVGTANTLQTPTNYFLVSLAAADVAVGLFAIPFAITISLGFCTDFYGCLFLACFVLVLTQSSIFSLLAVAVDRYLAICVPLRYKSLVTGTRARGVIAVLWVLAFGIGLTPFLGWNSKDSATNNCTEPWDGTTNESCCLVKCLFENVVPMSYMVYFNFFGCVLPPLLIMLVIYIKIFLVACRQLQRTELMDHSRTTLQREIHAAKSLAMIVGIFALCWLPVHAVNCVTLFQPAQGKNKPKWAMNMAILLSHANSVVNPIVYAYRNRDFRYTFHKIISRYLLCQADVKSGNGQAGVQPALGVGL
# Adenosine receptor A2a (Homo sapiens), sequence (P29274 whole entry): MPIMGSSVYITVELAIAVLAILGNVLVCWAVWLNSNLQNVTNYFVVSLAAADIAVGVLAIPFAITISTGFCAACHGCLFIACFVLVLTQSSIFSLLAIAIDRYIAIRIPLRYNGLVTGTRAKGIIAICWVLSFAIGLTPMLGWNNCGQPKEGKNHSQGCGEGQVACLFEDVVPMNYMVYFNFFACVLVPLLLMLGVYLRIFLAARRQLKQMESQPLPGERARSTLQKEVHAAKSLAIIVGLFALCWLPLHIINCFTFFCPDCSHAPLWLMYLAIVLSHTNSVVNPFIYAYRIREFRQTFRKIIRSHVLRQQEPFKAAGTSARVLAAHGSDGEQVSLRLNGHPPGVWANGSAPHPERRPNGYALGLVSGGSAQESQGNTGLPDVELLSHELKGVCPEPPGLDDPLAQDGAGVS
SMILES,inhibition [1] [%],inhibition [2] [%],CLint scaled [3] [mL/min/kg],solubility [4] [µg/mL],CLint scaled [5] [mL/min/kg],inhibition [6] [%],inhibition [7] [%],inhibition (INH) (Mus musculus) [%],inhibition in vivo at 10 mg/kg (Mus musculus) [%]
COc1ccc(-c2ccccc2)c2cc(C(=O)Nc3ccncc3)oc12,29,87,580,,,,,40,
COc1ccc(-c2cnccn2)c2cc(C(=O)Nc3ccc(Cn4ccnc4)cc3)oc12,20,44,< 7.83,,,,,,
COc1ccc(-c2ccncc2)c2cc(C(=O)Nc3ccc(Cn4ccnc4)cc3)oc12,56,90,40.7,,,,,,60
COc1ccc(-c2cccnc2)c2cc(C(=O)Nc3ccc(Cn4ccnc4)cc3)oc12,46,83,53,,,,,,60
COc1ccc(-c2cccnc2)c2cc(C(=O)Nc3ccncc3)oc12,27,67,57,,,,,,38
COc1ccc(-c2cnccn2)c2cc(C(=O)Nc3ccncc3)oc12,24,22,154,,,,,,
COc1ccc(-c2ccncc2)c2cc(C(=O)Nc3ccncc3)oc12,18,72,32.8,,,,,,48

# Further lines, with some results ahead:
inhibition [1] [%],inhibition [2] [%],CLint scaled [3] [mL/min/kg],solubility [4] [µg/mL],CLint scaled [5] [mL/min/kg],inhibition [6] [%],inhibition [7] [%],SMILES,inhibition (INH) (Mus musculus) [%],inhibition in vivo at 10 mg/kg (Mus musculus) [%]
39,74,,47,,,,COc1ccc(N2CCOCC2)c2cc(C(=O)Nc3ccc(CN4CCC(O)CC4)cc3)oc12,,50
23,58,,97,21.7,,,CNC(=O)c1cc2c(N3CCOCC3)ccc(OC)c2o1,,
30,73,,87,< 7.17,4,21,COc1ccc(N2CCOCC2)c2cc(C(=O)Nc3ccncc3)oc12,,76
37,87,,,,,,CCNC(=O)c1cc2c(N3CCOCC3)ccc(OC)c2o1,,44
-2,26,,,,,,COc1ccc(N2CCOCC2)c2cc(C(=O)NC3CCN(c4ncccn4)CC3)oc12,,
,-5,,,,,,COc1c(N2CCOCC2)ccc2cc(C(=O)Nc3ccncc3)oc12,,
50,89,,2,133,,,COc1ccc(N2CCOCC2)c2cc(C(=O)Nc3ccc(Cn4ccnc4)cc3)oc12,,
4,27,37.2,,,,,COc1ccc(-c2ccccn2)c2cc(C(=O)Nc3ccncc3)oc12,,
26,77,,,,,,COc1ccc(N2CCOCC2)c2oc(C(=O)Nc3ccncc3)cc12,,
